From patent US20230355647A1, “Marker for determining anti-cancer effects of mitochondrial oxidative phosphorylation pathway inhibitor” (NANJING SHIJIANG MEDICINE TECHNOLOGY CO., LTD, priority 2020, published 2023)

Experiments:
HH = assay: Cell viability (CellTiter-Glo), HH; assay type: cell-based; details: Homo sapiens; HH cell line, 3-4 days of culture
Procedure: (§1) Cell viability was detected using the Promega CellTiter-Glo kit, the kit reflected cell viability by directly measuring intracellular ATP content. The inhibitory effect (IC50 value) of Gboxin, a mitochondrial oxidative phosphorylation pathway inhibitor, on different tumor cell lines was tested in the Example. The name, source, and culture condition of each tumor cell line were as follows:
Cell line HH (ATCC, No. CRL-2105) was cultured in 10% fetal bovine serum-containing RPMI1640 medium (+P/S).
(§2) The above tumor cells were cultured in the relevant medium (+P/S), and incubated for 3 h, then the gradient diluted Gboxin was added, and IC50 (50% inhibiting concentration) was measured after 3-4 days of culture.

Gp2D = assay: Cell viability (CellTiter-Glo), Gp2D; assay type: cell-based; details: Homo sapiens; Gp2D cell line, 3-4 days of culture
Procedure: as §1
Cell line Gp2D (ECACC, No. 95090714) was cultured in 10% fetal bovine serum-containing DMEM medium (+P/S).
as §2

ATF4 stress pathway = assay: Western Blot of ATF4 in tumor cells after inhibitor treatment; assay type: cell-based, human; details: 1 μM or 3 μM Gboxin, 1 μM Oligomycin A, 12 h; for activity of ATF4 stress pathway: FIG. 3; for ATF4 stress pathway (ATF4 content): FIG. 2
Procedure: (§3) The inhibition of mitochondrial oxidative phosphorylation pathway could cause the activation of ATF4 stress pathway and the decrease of mTOR pathway activity, the activity of the mTOR pathway was reflected by the expression level of phosphorylated ribosomal protein S6 (ie, p-S6).
(§4) The tumor cells NCI-H82, G-401 and WSU-DLCL2 were cultured in the relevant 10% FBS-containing medium (+p/s), and incubated overnight, then 1 μM Gboxin, 3 μM Gboxin or 1 μM Oligomycin A as shown in FIG. 2 was added. After 12 h of incubation, the content of ATF4 and p-S6 protein was detected using Western Blot, the experiment result was shown in FIG. 2.
as §4, with “The cell lines SF126, CFPAC-1” for “The tumor cells NCI-H82, G-401”, “and 786-O” for “and WSU-DLCL2”, “FIG. 3” for “FIG. 2”, “FIG. 3.” for “FIG. 2.”

COLO 320HSR = assay: Cell viability (CellTiter-Glo), COLO 320HSR; assay type: cell-based; details: Homo sapiens; COLO 320HSR cell line, 3-4 days of culture
Procedure: as §1
Cell line COLO 320HSR (ATCC, No. CCL-220.1) was cultured in 10% fetal bovine serum-containing RPMI1640 medium (+P/S).
as §2

G-402 = assay: Cell viability (CellTiter-Glo), G-402; assay type: cell-based; details: Homo sapiens; G-402 cell line, 3-4 days of culture
Procedure: as §1
Cell line G-402 (ATCC, No. CRL-1440) was cultured in 10% fetal bovine serum-containing McCoy's 5a medium (+P/S).
as §2

G-401 = assay: Cell viability (CellTiter-Glo), G-401; assay type: cell-based; details: Homo sapiens; G-401 cell line, 3-4 days of culture
Procedure: as §1, with “follows: Cell line G-401 (ATCC, No. CRL-1441) was cultured in 10% fetal bovine serum-containing McCoy's 5a medium (+P/S). […] Cell viability was detected using the Promega CellTiter-Glo kit, the kit reflected cell viability by directly measuring intracellular ATP content.” for “follows:”

SNU-449 = assay: Cell viability (CellTiter-Glo), SNU-449; assay type: cell-based; details: Homo sapiens; SNU-449 cell line, 3-4 days of culture
Procedure: as §1
Cell line SNU-449 (ATCC, No. CRL-2234) was cultured in 10% fetal bovine serum-containing RPMI1640 medium (+P/S).
as §2

CCRF-CEM = assay: Cell viability (CellTiter-Glo), CCRF-CEM; assay type: cell-based; details: Homo sapiens; CCRF-CEM cell line, 3-4 days of culture
Procedure: as §1
Cell line CCRF-CEM (ATCC, No. CCL-119) was cultured in 10% fetal bovine serum-containing RPMI1640 medium (+P/S).
as §2

MIA PaCa-2 = assay: Cell viability (CellTiter-Glo), MIA PaCa-2; assay type: cell-based; details: Homo sapiens; MIA PaCa-2 cell line, 3-4 days of culture
Procedure: as §1
Cell line MIA PaCa-2 (ATCC, No. CRL-1420) was cultured in 10% fetal bovine serum-containing DMEM medium (+P/S).
as §2

OCI-AML-4 = assay: Cell viability (CellTiter-Glo), OCI-AML-4; assay type: cell-based; details: OCI-AML-4 cell line, 3-4 days of culture
Procedure: as §1
Cell line OCI-AML-4 (DSMZ, No. ACC-729) was cultured in alpha-MEM medium containing 20% fetal bovine serum and 20% volume fraction of 5637 cell line adjusted medium (+P/S).
as §2

MJ = assay: Cell viability (CellTiter-Glo), MJ; assay type: cell-based; details: Homo sapiens; MJ cell line, 3-4 days of culture
Procedure: as §1
Cell line MJ (ATCC, No. CRL-8294) was cultured 20% fetal bovine serum-containing IMDM medium (+P/S).
as §2

[1] = test system: brain tumors and other tumors; details: study published in Nature (2019); cited from earlier work
U-251 MG = assay: Cell viability (CellTiter-Glo), U-251 MG; assay type: cell-based; details: Homo sapiens; U-251 MG cell line, 3-4 days of culture
Procedure: as §1
Cell line U-251 MG (ECACC, No. 9063001) was cultured in EMEM medium containing 2 mM glutamine, 1% NEAA, 1 mM sodium pyruvate (NaP) and 10% fetal bovine serum (+P/S).
as §2

MDA-MB-231 = assay: Cell viability (CellTiter-Glo), MDA-MB-231; assay type: cell-based; details: Homo sapiens; MDA-MB-231 cell line, 3-4 days of culture
Procedure: as §1
Cell line MDA-MB-231 (ATCC, No. HTB-26) was cultured in 10% fetal bovine serum-containing Leibovitz's L-15 medium (+P/S).
as §2

mTOR pathway (p-S6) = assay: Western Blot of p-S6 protein in tumor cells after inhibitor treatment; assay type: cell-based, human; details: 1 μM or 3 μM Gboxin, 1 μM Oligomycin A, 12 h; for activity of mTOR pathway (p-S6): FIG. 3; for content of p-S6 protein (activity of mTOR pathway): FIG. 2
Procedure: as §3, §4
as §4, with “The cell lines SF126, CFPAC-1” for “The tumor cells NCI-H82, G-401”, “and 786-O” for “and WSU-DLCL2”, “FIG. 3” for “FIG. 2”, “FIG. 3.” for “FIG. 2.”

Structure (SMILES): CCc1n(CC(=O)O[C@@H]2C[C@H](C)CC[C@H]2C(C)C)c2ccccc2[n+]1C.[Cl-] [Gboxin]
- IC50 (HH): 2.67 µM
- IC50 (Gp2D): 13.3 µM
- activity of ATF4 stress pathway (ATF4 stress pathway; 786-O cells): no significant changes
- activity of ATF4 stress pathway (ATF4 stress pathway; CFPAC-1 cells): no significant changes
- ATF4 stress pathway (ATF4 content) (ATF4 stress pathway; G-401 cells): up-regulated
- ATF4 stress pathway (ATF4 content) (ATF4 stress pathway; NCI-H82 cells): up-regulated
- activity of ATF4 stress pathway (ATF4 stress pathway; SF126 cells): no significant changes
- ATF4 stress pathway (ATF4 content) (ATF4 stress pathway; WSU-DLCL2 cells): up-regulated
- IC50 (COLO 320HSR): > 30 µM
- IC50 (G-402): 2.82 µM
- IC50 (G-401): 0.777 µM
- IC50 (SNU-449): > 30 µM
- IC50 (CCRF-CEM): 2.59 µM
- IC50 (MIA PaCa-2): 2.57 µM
- IC50 (OCI-AML-4): 3.34 µM
- IC50 (MJ): 12.9 µM
- killing effect on brain tumors and other tumors [1]: excellent killing effect
- IC50 (U-251 MG): 16.7 µM
- IC50 (MDA-MB-231): 17.8 µM
- activity of mTOR pathway (p-S6) (mTOR pathway (p-S6); 786-O cells): no significant changes
- activity of mTOR pathway (p-S6) (mTOR pathway (p-S6); CFPAC-1 cells): no significant changes
- content of p-S6 protein (activity of mTOR pathway) (mTOR pathway (p-S6); G-401 cells): decreased
- content of p-S6 protein (activity of mTOR pathway) (mTOR pathway (p-S6); NCI-H82 cells): decreased
- activity of mTOR pathway (p-S6) (mTOR pathway (p-S6); SF126 cells): no significant changes
- content of p-S6 protein (activity of mTOR pathway) (mTOR pathway (p-S6); WSU-DLCL2 cells): decreased
